US12622909B2, “Allosteric EGFR inhibitors and methods of use thereof” (Dana-Farber Cancer Institute, Inc., priority 2019, dated 2026)
Like-named read-outs stand apart in the source and are kept apart here.

Columns and labels:
EGFR L858R/T790M = EGFR L858R/T790M (Homo sapiens, UniProt P00533, L858R/T790M); test: HTRF-based EGFR biochemical assay (L858R/T790M); conditions: 100 μM ATP, enzyme 0.02 nM
Procedure: (§1) EGFR biochemical activity measurements were carried out using the homogeneous time-resolved fluorescence (HTRF) assay (Cisbio). Inhibitors and DMSO normalizations were first dispensed to empty black low-volume 384-well plates (Corning) with D300 digital liquid dispenser (HP). All reactions were carried out at room temperature and solutions were added to plates with a Multidrop Combi Reagent Dispenser (ThermoFisher). The reaction mixture (10 μL final volume) contained 1 μM tyrosine kinase peptide-biotin substrate and mutant EGFR in a reaction buffer (50 mM HEPES pH 7.0, 5 mM MgCl2, 1 mM MnCl2, 0.01% BSA, 2 mM TCEP, 0.1 mM NaVO4). […] Enzyme reaction solution (2× concentrations, 5 μL) was added to 384-well plates containing compounds and incubated for 30 mins. Enzyme reactions were initiated with the addition of 5 μL of ATP to a final concentration of 100 μM and reacted for 20 mins.

EGFR L858R = EGFR L858R (Homo sapiens, UniProt P00533, L858R); test: HTRF-based EGFR biochemical assay (L858R); conditions: 100 μM ATP, enzyme 0.1 nM
EGFR L858R, sequence (P00533 25-1210 L858R): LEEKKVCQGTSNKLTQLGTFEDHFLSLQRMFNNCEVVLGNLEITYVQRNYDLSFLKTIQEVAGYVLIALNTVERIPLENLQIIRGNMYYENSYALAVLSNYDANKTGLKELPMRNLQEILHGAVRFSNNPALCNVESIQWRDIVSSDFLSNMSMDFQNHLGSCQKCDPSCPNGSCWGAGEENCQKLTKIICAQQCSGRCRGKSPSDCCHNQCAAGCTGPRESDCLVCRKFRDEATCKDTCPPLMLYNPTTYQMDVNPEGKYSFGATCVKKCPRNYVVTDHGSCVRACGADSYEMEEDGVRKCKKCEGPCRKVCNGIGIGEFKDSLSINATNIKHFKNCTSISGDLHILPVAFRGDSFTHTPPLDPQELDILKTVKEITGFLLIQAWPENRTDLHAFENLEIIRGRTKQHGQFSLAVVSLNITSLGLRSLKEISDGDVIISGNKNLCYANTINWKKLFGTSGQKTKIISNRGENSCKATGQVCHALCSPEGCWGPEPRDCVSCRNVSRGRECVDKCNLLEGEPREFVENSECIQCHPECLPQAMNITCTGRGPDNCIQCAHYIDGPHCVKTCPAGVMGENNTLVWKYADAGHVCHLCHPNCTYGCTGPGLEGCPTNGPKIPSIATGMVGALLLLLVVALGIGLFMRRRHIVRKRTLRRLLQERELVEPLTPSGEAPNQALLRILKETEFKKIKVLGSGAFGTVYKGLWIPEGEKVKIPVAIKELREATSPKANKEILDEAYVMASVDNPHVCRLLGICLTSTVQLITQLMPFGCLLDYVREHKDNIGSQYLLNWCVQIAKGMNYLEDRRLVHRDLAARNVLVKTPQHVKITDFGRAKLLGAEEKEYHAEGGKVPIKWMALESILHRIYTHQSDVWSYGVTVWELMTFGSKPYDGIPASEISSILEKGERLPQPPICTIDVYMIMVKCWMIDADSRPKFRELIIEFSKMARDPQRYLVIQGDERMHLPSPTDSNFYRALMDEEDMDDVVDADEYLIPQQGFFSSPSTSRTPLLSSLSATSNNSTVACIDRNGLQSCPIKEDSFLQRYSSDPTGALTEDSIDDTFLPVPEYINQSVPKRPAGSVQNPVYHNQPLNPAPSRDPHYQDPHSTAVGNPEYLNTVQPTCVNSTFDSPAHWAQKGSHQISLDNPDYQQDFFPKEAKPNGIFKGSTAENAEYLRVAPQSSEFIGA
Procedure: as §1, with “20 mins. Reactions were quenched with the addition of 10 μL of phospho-tyrosine antibody-Europium(III) cryptate (1-to-180 volume ratio) and Streptavidin-XL665 (46.7 nM) in EDTA-containing detection buffer, then incubated at room temperature for 1 hour, and read with a PHERAstar plate reader (excitation=337 nm, emission=620 nm and 665 nm).” for “20 mins.”

[1] = target: EGFR L858R/T790M mutant Ba/F3 cells (Homo sapiens, UniProt P00533, T790M/L858R, cells depend on it); test: Ba/F3 cell proliferation (Cell Titer Glo); format: cell-based, murine; conditions: 72 hours
EGFR L858R/T790M mutant Ba/F3 cells, sequence (P00533 whole entry T790M/L858R): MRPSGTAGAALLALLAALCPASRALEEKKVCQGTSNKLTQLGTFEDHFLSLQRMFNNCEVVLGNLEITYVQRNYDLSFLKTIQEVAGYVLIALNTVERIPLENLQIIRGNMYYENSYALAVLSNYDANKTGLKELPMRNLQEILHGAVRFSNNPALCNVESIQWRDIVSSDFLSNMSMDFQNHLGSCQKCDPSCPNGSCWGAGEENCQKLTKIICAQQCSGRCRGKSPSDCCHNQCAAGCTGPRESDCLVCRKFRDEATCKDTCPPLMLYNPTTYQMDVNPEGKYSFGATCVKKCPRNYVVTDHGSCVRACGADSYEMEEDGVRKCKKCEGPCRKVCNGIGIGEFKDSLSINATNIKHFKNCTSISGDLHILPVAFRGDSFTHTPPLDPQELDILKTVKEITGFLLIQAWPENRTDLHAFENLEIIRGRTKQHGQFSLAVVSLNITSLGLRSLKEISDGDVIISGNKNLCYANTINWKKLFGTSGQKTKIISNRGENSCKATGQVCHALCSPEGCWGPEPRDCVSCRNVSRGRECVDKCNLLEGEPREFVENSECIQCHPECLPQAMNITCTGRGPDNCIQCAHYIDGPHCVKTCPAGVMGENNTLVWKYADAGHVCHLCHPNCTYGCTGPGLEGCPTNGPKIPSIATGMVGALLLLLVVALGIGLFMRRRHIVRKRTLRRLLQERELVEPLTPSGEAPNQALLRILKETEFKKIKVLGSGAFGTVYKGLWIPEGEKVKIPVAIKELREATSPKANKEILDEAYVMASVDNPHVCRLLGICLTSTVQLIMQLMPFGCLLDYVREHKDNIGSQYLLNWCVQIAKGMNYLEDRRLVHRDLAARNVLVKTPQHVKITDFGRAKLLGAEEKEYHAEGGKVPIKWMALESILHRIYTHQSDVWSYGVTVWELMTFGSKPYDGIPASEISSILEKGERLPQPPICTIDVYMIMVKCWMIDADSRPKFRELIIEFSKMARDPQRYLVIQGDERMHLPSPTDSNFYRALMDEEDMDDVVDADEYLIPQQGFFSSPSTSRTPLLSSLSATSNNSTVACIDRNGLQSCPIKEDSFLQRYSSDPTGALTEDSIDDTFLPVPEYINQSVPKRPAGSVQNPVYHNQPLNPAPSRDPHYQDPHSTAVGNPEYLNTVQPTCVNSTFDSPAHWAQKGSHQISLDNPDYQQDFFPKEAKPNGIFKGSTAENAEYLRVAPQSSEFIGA
Excerpt: All cell lines were maintained in RPMI 1640 (Cellgro; Mediatech Inc., Herndon, CA) supplemented with 10% FBS, 100 units/mL penicillin, 100 units/mL streptomycin. The EGFR I941R mutation was introduced via site directed mutagenesis using the Quick Change Site-Directed Mutagenesis kit (Stratagene; La Jolla, CA) according to the manufacturer's instructions. All constructs were confirmed by DNA sequencing. The constructs were shuttled into the retroviral vector JP1540 using the Cre-recombination system (Agilent Technologies, Santa Clara, CA). Ba/F3 cells were then infected with retrovirus per standard protocols, as described previously (Zhou, et al, Nature 2009). Stable clones were obtained by selection in puromycin (2 μg/ml).
Growth and inhibition of growth was assessed by the Cell Titer Glo assay (Promega, Madison, WI) and was performed according to the manufacturer's instructions. The Cell Titer Glo assay is a luminescence-based method used to determine the number of viable cells based on quantitation of the ATP present, which is directly proportional to the amount of metabolically active cells present. […] All experimental points were set up in triplicates in 384-well plates and all experiments were repeated at least three times. […] The curves were fitted using a non-linear regression model with a sigmoidal dose response.

[2] = in combination with 1 μg/ml cetuximab, read-out: Cell IC50 BaF3 L858R/T790M compound + cetuximab
[3] = single agent, read-out: Cell IC50 EGFR BaF3 L858R/T790M

EGFR L858R/T790M, sequence (P00533 25-1210 T790M/L858R): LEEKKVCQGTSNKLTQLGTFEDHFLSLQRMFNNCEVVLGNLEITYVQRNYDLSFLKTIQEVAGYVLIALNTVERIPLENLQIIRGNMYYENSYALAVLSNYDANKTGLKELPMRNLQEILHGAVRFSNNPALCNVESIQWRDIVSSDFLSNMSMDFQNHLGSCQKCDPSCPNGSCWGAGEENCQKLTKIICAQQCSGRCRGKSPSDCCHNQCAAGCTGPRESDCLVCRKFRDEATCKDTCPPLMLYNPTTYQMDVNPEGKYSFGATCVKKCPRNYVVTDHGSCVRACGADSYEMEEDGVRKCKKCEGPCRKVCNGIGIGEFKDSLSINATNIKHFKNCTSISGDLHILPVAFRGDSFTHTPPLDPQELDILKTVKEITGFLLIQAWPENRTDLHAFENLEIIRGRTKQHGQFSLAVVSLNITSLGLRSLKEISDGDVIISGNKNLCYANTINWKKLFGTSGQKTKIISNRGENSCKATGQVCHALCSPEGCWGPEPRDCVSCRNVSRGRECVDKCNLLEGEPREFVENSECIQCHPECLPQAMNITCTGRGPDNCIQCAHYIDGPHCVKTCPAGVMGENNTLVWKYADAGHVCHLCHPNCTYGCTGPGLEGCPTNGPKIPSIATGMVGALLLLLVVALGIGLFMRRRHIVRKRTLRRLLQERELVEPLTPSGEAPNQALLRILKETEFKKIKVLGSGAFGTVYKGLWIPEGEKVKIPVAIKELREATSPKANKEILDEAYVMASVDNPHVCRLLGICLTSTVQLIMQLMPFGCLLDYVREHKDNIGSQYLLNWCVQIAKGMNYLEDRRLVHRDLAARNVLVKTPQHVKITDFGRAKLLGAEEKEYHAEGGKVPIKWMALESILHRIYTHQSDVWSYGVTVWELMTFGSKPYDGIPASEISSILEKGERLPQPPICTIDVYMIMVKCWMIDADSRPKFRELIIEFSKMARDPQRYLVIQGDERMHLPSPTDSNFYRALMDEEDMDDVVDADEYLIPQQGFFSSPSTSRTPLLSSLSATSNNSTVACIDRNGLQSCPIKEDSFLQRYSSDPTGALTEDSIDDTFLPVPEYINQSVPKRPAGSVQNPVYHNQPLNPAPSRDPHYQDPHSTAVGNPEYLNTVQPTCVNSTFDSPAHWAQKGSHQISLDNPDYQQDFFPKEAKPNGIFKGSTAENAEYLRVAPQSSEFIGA

Row | IC50 (EGFR L858R/T790M) | IC50 (EGFR L858R) | GI50 [1, 2] | GI50 [1, 3] | Compound
1 | 6 nM | 26 nM | 780 nM | 1420 nM | CN1CCC(c2ccc(-c3cc4ncn(C(C(=O)Nc5nccs5)c5ccccc5)c(=O)c4cc3F)cc2)CC1 (centres unmarked) [Compound 020, 2-(6-Fluoro-7-(4-(1-methylpiperidin-4-yl)phenyl)-4-oxoquinazolin-3(4H)-yl)-2-phenyl-N-(thiazol-2-yl)acetamide]
2 | 0.7 nM | 5 nM | 18 nM | 1560 nM | CN1CCC(c2ccc(-c3ccc4ncn(C(C(=O)Nc5nccs5)c5ccccn5)c(=O)c4c3F)cc2)CC1 (centres unmarked) [Compound 068, 2-(5-Fluoro-6-(4-(1-methylpiperidin-4-yl)phenyl)-4-oxoquinazolin-3(4H)-yl)-2-(pyridin-2-yl)-N-(thiazol-2-yl)-acetamide]
3 | 1 nM | 13 nM | 41 nM | 3960 nM | CN1CCN(c2ccc(-c3ccc4ncn(C(C(=O)Nc5nccs5)c5ccccc5F)c(=O)c4c3)cc2)CC1 (centres unmarked) [Compound 067, 2-(2-fluorophenyl)-2-(6-(4-(4-methylpiperazin-1-yl)phenyl)-4-oxo-quinazolin-3(4H)-yl)-N-(thiazol-2-yl)-acetamide]
4 | 7 nM | 50 nM | 700 nM | 4730 nM | CN1CCN(c2ccc(-c3cnc4c(=O)n(C(C(=O)Nc5nccs5)c5ccccc5)cnc4c3)cc2)CC1 (centres unmarked) [Compound 057, 2-(7-(4-(4-Methylpiperazin-1-yl)-phenyl)-4-oxopyrido[3,2-d]-pyrimidin-3(4H)-yl)-2-phenyl-N-(thiazol-2-yl)acetamide]
5 | 0.6 nM | 2 nM | 20 nM | 1260 nM | CN1CCC(c2ccc(-c3ccc4c(=O)n(C(C(=O)Nc5nccs5)c5ccccc5)cc(F)c4c3)cc2)CC1 (centres unmarked) [Compound 022, 2-(4-Fluoro-6-(4-(1-methylpiperidin-4-yl)phenyl)-1-oxoisoquinolin-2(1H)-yl)-2-phenyl-N-(thiazol-2-yl)acetamide]
6 | 3 nM | 7 nM | 110 nM | 2410 nM | CN1CCN(c2ccc(-c3ccc4c(=O)n(C(C(=O)Nc5nccs5)c5ccccc5)cc(F)c4c3)cc2)CC1 (centres unmarked) [Compound 023, 2-(4-Fluoro-6-(4-(4-methylpiperazin-1-yl)phenyl)-1-oxoisoquinolin-2(1H)-yl)-2-phenyl-N-(thiazol-2-yl)-acetamide]
7 | 0.2 nM | 1 nM | 5 nM | 550 nM | CN1CCC(c2ccc(-c3ccc4ncn(C(C(=O)Nc5nccs5)c5cccc(F)c5)c(=O)c4c3F)cc2)CC1 (centres unmarked) [Compound 070, 2-(5-Fluoro-6-(4-(1-methylpiperidin-4-yl)phenyl)-4-oxoquinazolin-3-(4H)-yl)-2-(3-fluorophenyl)-N-(thiazol-2-yl)acetamide]
8 | 18 nM | 91 nM | 560 nM | 3450 nM | CN1CCN(c2ccc(-c3ccc4c(=O)n(C(C(=O)Nc5nccs5)c5cccc(F)c5)cnc4c3)cc2)CC1 (centres unmarked) [Compound 029, 2-(3-Fluorophenyl)-2-(7-(4-(4-methyl-piperazin-1-yl)phenyl)-4-oxo-quinazolin-3(4H)-yl)-N-(thiazol-2-yl)-acetamide]
9 | 2 nM | 9 nM | 57 nM | 1860 nM | CN1CCC(c2ccc(-c3ccc4ncn(C(C(=O)Nc5ccccn5)c5ccccc5)c(=O)c4c3)cc2)CC1 (centres unmarked) [Compound 038, 2-(6-(4-(1-Methylpiperidin-4-yl)-phenyl)-4-oxaquinazolin-3(4H)-yl)-2-phenyl-N-(pyridin-2-yl)acetamide]
10 | 62 nM | 1260 nM | 8300 nM | > 10000 nM | O=C(Nc1nccs1)C(c1ccccc1)n1cnc2cc(Br)ccc2c1=O (centres unmarked) [Compound 001, 2-(7-Bromo-4-oxoquinazolin-3(4H)-yl)-2-phenyl-N-(thiazol-2-yl)acetamide]
11 | 0.6 nM | 6 nM | 22 nM | 2350 nM | CN1CCC(c2ccc(-c3ccc4ncn(C(C(=O)Nc5ccccn5)c5cccc(F)c5)c(=O)c4c3F)cc2)CC1 (centres unmarked) [Compound 074, 2-(5-Fluoro-6-(4-(1-methylpiperidin-4-yl)phenyl)-4-oxoquinazolin-3-(4H)-yl)-2-(3-fluorophenyl)-N-(pyridin-2-yl)acetamide]
12 | 31 nM | > 1000 nM | > 10000 nM | > 10000 nM | O=C(Nc1nccs1)C(c1ccccc1)n1ncc2ccc(Br)cc2c1=O (centres unmarked) [Compound 041, 2-(7-Bromo-1-oxophthalazin-2(1H)-yl)-2-phenyl-N-(thiazol-2-yl)-acetamide]
13 | 1 nM | 12 nM | 55 nM | 1600 nM | CN1CCN(c2ccc(-c3ccc4ncn(C(C(=O)Nc5nccs5)c5ccccc5)c(=O)c4n3)cc2)CC1 (centres unmarked) [Compound 072, 2-(6-(4-(4-Methylpiperazin-1-yl)-phenyl)-4-oxopyrido[3,2-d]-pyrimidin-3(4H)-yl)-2-phenyl-N-(thiazol-2-yl)acetamide]
14 | 91 nM | > 1000 nM | 4800 nM | > 10000 nM | O=C(Nc1nccs1)C(c1ccccc1)n1cnc2cc(Br)c(F)cc2c1=O (centres unmarked) [Compound 005, 2-(7-Bromo-6-fluoro-4-oxoquinazolin-3(4H)-yl)-2-phenyl-N-(thiazol-2-yl)acetamide]
15 | 36 nM | > 1000 nM | 1800 nM | > 10000 nM | O=C(Nc1nccs1)C(c1ccccc1)n1cc(F)c2cc(Br)ccc2c1=O (centres unmarked) [Compound 006, 2-(6-Bromo-4-fluoro-1-oxo-isoquinolin-2(1H)-yl)-2-phenyl-N-(thiazol-2-yl)acetamide]
16 | 1 nM | 8 nM | 22 nM | 2650 nM | CN1CCN(c2ccc(-c3ccc4c(F)cn(C(C(=O)Nc5nccs5)c5ccccc5)c(=O)c4c3)cc2)CC1 (centres unmarked) [Compound 037, 2-(4-Fluoro-7-(4-(4-methylpiperazin-1-yl)phenyl)-1-oxoisoquinolin-2(1H)-yl)-2-phenyl-N-(thiazol-2-yl)-acetamide]
17 | 16 nM | 195 nM | 350 nM | > 10000 nM | O=C(Nc1nccs1)C(c1cccc(F)c1)n1cnc2ccc(Br)cc2c1=O (centres unmarked) [Compound 011, 2-(6-Bromo-4-oxoquinazolin-3(4H)-yl)-2-(3-fluorophenyl)-N-(thiazol-2-yl)acetamide]
18 | 0.2 nM | 2 nM | 20 nM | 1880 nM | CN1CCC(c2ccc(-c3ccc4ncn(C(C(=O)Nc5nccs5)c5ccccc5F)c(=O)c4c3)cc2)CC1 (centres unmarked) [Compound 066, 2-(2-Fluorophenyl)-2-(6-(4-(1-methylpiperidin-4-yl)phenyl)-4-oxo-quinazolin-3(4H)-yl)-N-(thiazol-2-yl)-acetamide]

Row | Compound | IC50 (EGFR L858R/T790M) | IC50 (EGFR L858R) | GI50 [1, 2] | GI50 [1, 3]
19 | CN1CCC(c2ccc(-c3ccc4ncn(C(C(=O)Nc5nccs5)c5ccccc5)c(=O)c4n3)cc2)CC1 (centres unmarked) [Compound 073, 2-(6-(4-(1-Methylpiperidin-4-yl)-phenyl)-4-oxopyrido[3,2-d]-pyrimidin-3(4H)-yl)-2-phenyl-N-(thiazol-2-yl)acetamide] | 0.6 nM | 7 nM | 15 nM | 1940 nM
20 | CN1CCN(c2ccc(-c3ccc4c(=O)n(C(C(=O)Nc5nccs5)c5ccccc5)cnc4c3)cc2)CC1 (centres unmarked) [Compound 013, 2-(7-(4-(4-Methylpiperazin-1-yl)-phenyl)-4-oxoquinazolin-3(4H)-yl)-2-phenyl-N-(thiazol-2-yl)acetamide] | 3 nM | 14 nM | 380 nM | 2000 nM
